Measurements reported in patent publication US12274703B2, “Compositions and methods of treatment for neurological disorders comprising a dementia” (Gliapharm SA, priority 2017, dated 2025).
Where two headings read alike, the source gives them in different places.

Columns and labels:
[1] = tested on: astrocytes; assay: Intracellular glycogen quantification; assay type: cell-based, mouse; conditions: CDC54K hits; 10 μM, 3 h
[2] = tested on: astrocytes; assay: Production of H2O2 (mitochondrial activity); assay type: cell-based; conditions: Mus musculus, Astrocyte, 1.5 h; CDC54K hits; 0-200 uM, 90 min
Description: (§1) Primary cultures of cerebrocortical astrocytes were obtained from 1-2-day-old OF1 mouse pups (Charles River Laboratories). Briefly, cortices were isolated and minced in small pieces under a dissecting microscope. The cells were incubated for 30 min at 37° C. in a solution containing 20 U/ml of papain enzyme (Worthington Biochemical), L-cysteine 1 mM (Sigma), and 10 kU/ml DNase I (Worthington Biochemical) for an enzymatic dissociation. Papain activity was stopped by the addition of fetal calf serum (FCS) to the solution, and a single-cell suspension was then obtained by mechanical dissociation, which consisted in cells trituration in a DMEM (D7777, Sigma-Aldrich) medium (supplemented with 44 mm NaHCO3, and 10 ml/L antibiotic/antimycotic solution) containing 10% FCS. The cells were seeded at an average density of 6×10^4 cells/cm^2 in poly-D-lysine-coated 96, 12 or 6-well culture plates, depending on their use, and incubated at 37° C. in a humidified atmosphere containing 5% CO2/95% air. Culture medium was renewed twice per week. Cells were stimulated and harvested between DIV14 and DIV17, when confluence and cell growth were optimal.
Hydrogene peroxide (H2O2) released in the supernatant is detected enzymatically with Amplex red (Zhou, Diwu et al. 1997). Oxidation of Amplex red is catalysed by the horseradish peroxidase in presence of H2O2 into highly fluorescent resorufin. Fluorescence measure is read at 545 nm extinction, 590 nm emission. The amount of H2O2 was expressed relatively to the proteins content extracted from the cells in culture. […]
Mitochondrial respiration in astrocytes was measured through production of H2O2 at 90 min after stimulation with CDC54K hits (ranging from 0 to 200 uM).

[3] = tested on: primary astrocytes; assay: High throughput screening for lactate secretion: acidification of extracellular medium (SNARF5); assay type: cell-based, mouse; design: key to Score / HTS Score (lactate) / HTS Score (SNARF5) / Score_SNARF: fraction of positive control activity (positive control = 100%); conditions: for Emax at 10 µM: Mus musculus, Astrocyte, 1.5 h
Method in brief: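 Mouse cortical astrocytes (DIV17) stimulated 90 min at 10 uM compound (1% DMSO) in low-bicarbonate DMEM, 5 mM glucose, with SNARF-5F; extracellular acidification read as 630/580 nm emission ratio (exc 480 nm). Duplicates; score as % of CCCP 2 uM control, hits >3× summed SD above DMSO.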

[4] = tested on: astrocytes; assay: MTT viability assay; assay type: cell-based; conditions: Mus musculus, Astrocyte; CDC54K hits; cellular toxicity, 0-200 uM
Description: as §1
For cell toxicity determination, astrocytes in 96-well plates were stimulated 24 h (37° C. 5% CO2/95% air) with a gradient ranging from 0.1 to 200 μM of tested compounds. After stimulation, 5 mg/ml thiazol blue tetrazolium bromide (MTT, Sigma-Aldrich) in warm D5030 complete medium was added to each well, and cells were incubated for 4 h at 37° C. (5% CO2). The medium was then removed by aspiration, and the reaction was stopped by the addition of 50 μl DMSO per well.
The amount of reduced MTT (formazan) solubilized in DMSO was then determined spectrophotometrically using absorbance at 570 nm (Safire 2; Tecan).
MTT cellular viability assay was performed on astrocytes exposed to molecules from the Prestwick library (Prestwick hits; concentrations ranging from 0 uM to 200 uM).
MTT cellular viability assay was performed on astrocytes exposed to CDC54K hits (concentrations ranging from 0 uM to 200 uM).

[5] = tested on: astrocytes; assay: Extracellular lactate quantification; assay type: cell-based, mouse; conditions: for EC50: Mus musculus, Astrocyte, 1.5 h, CDC54K hits, 0-100 uM, 90 min, read-out: Lactate EC50
Description: as §1
Secretion of L-lactate was determined in the extracellular medium of 96-well plated astrocytes after 90 min stimulation (at 37° C., in 5% CO2/95% air conditions) with the drug of interest. The stimulation medium was composed of D5030 medium (completed with D-glucose 5 mM and 44 mM sodium bicarbonate) for 90 min in concentrations ranging from 0 to 100 μM.
Briefly, 200 μl of a Glycine (Sigma)-Semicarbazide (Acros) 0.2M pH 10 buffer containing 3 mM NAD (Roche) and LDH 14 U/ml (Roche) was added to each well of a 96-well plate containing 30 μl aliquots complemented with 20 μl fresh complete D5030 medium. Samples were incubated at 37° C. for 1 h. After samples cooled down at room temperature, the fluorescence intensity (340 nm excitation/450 nm emission) that represents the amount of NADH produced was measured, and lactate concentration values were determined from a standard curve of L-lactate.
Statistical analysis consisted in ANOVA followed by Fisher LSD post-hoc test for pair-wise comparisons.
Levels of lactate secreted by astrocytes were measured in the extracellular medium at 90 min after stimulation with hits (molecules) from the CDC54K library.

Row | Structure (SMILES) | Glycogen (statistical significance of glycogen degradation) [1] | IC50 [2] | Emax at 10 µM ([3]; Appendix I, primary screening, 10 uM, 90 min, relative to positive control, read-out: Score) | Emax at 10 µM ([3]; CDC54K hits, 10 uM, 90 min, relative to positive control CCCP 2 uM, read-out: HTS Score (SNARF5)) | IC50 [4] | EC50 [5] | Score_SNARF ([3]; Appendix I, primary screening confirmation (SNARF5)) | Score ([3]; Appendix I, primary screening, 10 uM, 90 min, relative to positive control) | HTS Score (SNARF5) ([3]; CDC54K hits, 10 uM, 90 min, relative to positive control CCCP 2 uM) | Score_LACTATE ([5]; Appendix I, secondary screening, dosage of extracellular lactate)
1 | CC(=O)c1cccc(NC(=O)C(C)Sc2ncnc3ccccc23)c1 (centres unmarked) [T0511-9200] | ns | > 200 µM | 84.4% | 84.4% | > 200 µM | 10.2 µM | – | – | – | –
2 | CCc1ccc(S(=O)(=O)Nc2ccc3[nH]ncc3c2)cc1 [T5599014] | ns | 158 µM | – | – | > 200 µM | 8.8 µM | 0.5778 | 0.5424 | 0.542 | 0.4419
